Assays:
bedstraw = assay: Test B pre/postemergence bedstraw; assay type: in vivo, Galium aparine
Method in brief: (§1)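 Test chemicals in a non-phytotoxic solvent mixture with surfactant were sprayed preemergence onto planted seeds and postemergence onto plants 2 to 18 cm tall (1- to 4-leaf stage). After twelve to sixteen days in a greenhouse, injury was visually rated against untreated controls from 0 (no effect) to 10 (complete control).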

sugar beet = assay: Test B pre/postemergence sugar beet; assay type: in vivo, Beta vulgaris
Method in brief: as §1

duck salad = assay: Test B flood test duck salad; assay type: in vivo, Heteranthera limosa
Method in brief: (§2)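 Plants were grown to the 2-leaf stage before treatment with test chemical, then held in a greenhouse for twelve to sixteen days. Injury was visually rated against untreated controls on a 0–10 scale, where 0 is no effect and 10 is complete control.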

cocklebur = assay: Test B pre/postemergence cocklebur; assay type: in vivo, Xanthium strumarium
Method in brief: as §1

wild oat = assay: Test B pre/postemergence wild oat; assay type: in vivo, Avena fatua
Method in brief: as §1

velvetleaf = assay: Test B pre/postemergence velvetleaf; assay type: in vivo, Abutilon theophrasti
Method in brief: as §1

wheat = assay: Test B pre/postemergence wheat; assay type: in vivo, Triticum aestivum
Method in brief: as §1

crabgrass = assay: Test B pre/postemergence crabgrass; assay type: in vivo, Digitaria sanguinalis
Method in brief: as §1

blackgrass = assay: Test B pre/postemergence blackgrass; assay type: in vivo, Alopecurus myosuroides
Method in brief: as §1

surinam grass = assay: Test B pre/postemergence surinam grass; assay type: in vivo, Brachiaria decumbens
Method in brief: as §1

morningglory = assay: Test B pre/postemergence morningglory; assay type: in vivo, Ipomoea hederacea
Method in brief: as §1

giant foxtail = assay: Test B pre/postemergence giant foxtail; assay type: in vivo, Setaria faberii
Method in brief: as §1

purple nutsedge = assay: Test B pre/postemergence purple nutsedge; assay type: in vivo, Cyperus rotundus
Method in brief: as §1

rice = assay: Test B flood test rice; assay type: in vivo, Oryza sativa
Method in brief: as §2

bamyardgrass = assay: Test B flood test barnyardgrass; assay type: in vivo, Echinochloa crus-galli
Method in brief: as §2

pigweed = assay: Test B pre/postemergence pigweed; assay type: in vivo, Amaranthus retroflexus
Method in brief: as §1

[1] = Postemergence, Rate 125 g/ha, scale of 0 to 10 where 0 is no effect and 10 is complete control
[2] = Preemergence, Rate 62 g/ha, scale of 0 to 10 where 0 is no effect and 10 is complete control
[3] = Preemergence, Rate 125 g/ha, 0 is no effect, 10 is complete control
[4] = Preemergence, Rate 250 g/ha, scale 0 to 10, 0 is no effect, 10 is complete control
[5] = Preemergence, Rate 500 g/ha, scale 0 to 10 (0 no effect, 10 complete control)
[6] = Rate 62 g/ha, Postemergence, scale of 0 to 10 where 0 is no effect and 10 is complete control
[7] = Rate 250 g/ha, Postemergence, scale 0 to 10, 0 is no effect, 10 is complete control
[8] = Rate 500 g/ha, Postemergence, scale 0 to 10
[9] = Postemergence (flood test species), Rate 125 g/ha, scale of 0 to 10 where 0 is no effect and 10 is complete control
[10] = Rate 62 g/ha, Postemergence section, flood test species, scale of 0 to 10 where 0 is no effect and 10 is complete control
[11] = Rate 250 g/ha, Postemergence (flood test), scale 0 to 10, 0 is no effect, 10 is complete control
[12] = Rate 500 g/ha, listed under Postemergence (flood test species), scale 0 to 10

Cc1nsc(C)c1-n1c(=O)on(C(=O)N(c2ccc(F)cc2F)C(C)C)c1=O [Compound 158]
Bedstraw plant response rating (bedstraw; [1]): 0 | Bedstraw plant response rating (bedstraw; [2]): 0 | Bedstraw plant response rating (0 to 10 scale) (bedstraw; [3]): 0 | Bedstraw plant response rating (bedstraw; [4]): 0 | Bedstraw plant response rating (bedstraw; [5]): 0 | Bedstraw plant response rating (bedstraw; [6]): 0 | Plant response rating, Bedstraw (bedstraw; [7]): 0 | Sugarbeets plant response rating (sugar beet; [1]): 0 | Sugarbeets plant response rating (sugar beet; [2]): 0 | Sugarbeets plant response rating (0 to 10 scale) (sugar beet; [3]): 0 | Sugarbeets plant response rating (sugar beet; [4]): 0 | Sugarbeets plant response rating (sugar beet; [5]): 0 | Sugarbeets plant response rating (sugar beet; [6]): 0 | Plant response rating, Sugarbeets (sugar beet; [7]): 0 | Sugarbeets plant response rating (sugar beet; [8]): 0 | Ducksalad plant response rating (duck salad; [9]): 0 | Ducksalad plant response rating (duck salad; [10]): 0 | Plant response rating, Ducksalad (duck salad; [11]): 0 | Ducksalad plant response rating (duck salad; [12]): 0 | Cocklebur plant response rating (cocklebur; [1]): 0 | Cocklebur plant response rating (cocklebur; [2]): 0 | Cocklebur plant response rating (0 to 10 scale) (cocklebur; [3]): 0 | Cocklebur plant response rating (cocklebur; [4]): 0 | Cocklebur plant response rating (cocklebur; [5]): 0 | Cocklebur plant response rating (cocklebur; [6]): 0 | Plant response rating, Cocklebur (cocklebur; [7]): 0 | Cocklebur plant response rating (cocklebur; [8]): 0 | Wild oats plant response rating (wild oat; [2]): 0 | Wild oats plant response rating (0 to 10 scale) (wild oat; [3]): 0 | Wild oats plant response rating (wild oat; [4]): 0 | Wild oats plant response rating (wild oat; [5]): 2 | Plant response rating, Wild oats (wild oat; [7]): 0 | Wild oats plant response rating (wild oat; [8]): 0 | Velvetleaf plant response rating (velvetleaf; [2]): 0 | Velvetleaf plant response rating (0 to 10 scale) (velvetleaf; [3]): 0 | Velvetleaf plant response rating (velvetleaf; [4]): 0 | Velvetleaf plant response rating (velvetleaf; [5]): 0 | Plant response rating, Velvetleaf (velvetleaf; [7]): 0 | Velvetleaf plant response rating (velvetleaf; [8]): 0 | Wheat plant response rating (wheat; [2]): 0 | Wheat plant response rating (0 to 10 scale) (wheat; [3]): 0 | Wheat plant response rating (wheat; [4]): 0 | Wheat plant response rating (wheat; [5]): 0 | Plant response rating, Wheat (wheat; [7]): 0 | Wheat plant response rating (wheat; [8]): 0 | Crabgrass plant response rating (crabgrass; [1]): 0 | Crabgrass plant response rating (crabgrass; [2]): 3 | Crabgrass plant response rating (0 to 10 scale) (crabgrass; [3]): 3 | Crabgrass plant response rating (crabgrass; [4]): 4 | Crabgrass plant response rating (crabgrass; [5]): 7 | Crabgrass plant response rating (crabgrass; [6]): 0 | Plant response rating, Crabgrass (crabgrass; [7]): 3 | Crabgrass plant response rating (crabgrass; [8]): 4 | Blackgrass plant response rating (blackgrass; [1]): 1 | Blackgrass plant response rating (blackgrass; [2]): 0 | Blackgrass plant response rating (0 to 10 scale) (blackgrass; [3]): 0 | Blackgrass plant response rating (blackgrass; [5]): 3 | Blackgrass plant response rating (blackgrass; [6]): 1 | Plant response rating, Blackgrass (blackgrass; [7]): 2 | Blackgrass plant response rating (blackgrass; [8]): 5 | B. signalgrass plant response rating (surinam grass; [1]): 0 | B. signalgrass plant response rating (surinam grass; [2]): 0 | B. signalgrass plant response rating (0 to 10 scale) (surinam grass; [3]): 0 | B. signalgrass plant response rating (surinam grass; [4]): 0 | B. signalgrass plant response rating (surinam grass; [5]): 0 | B. signalgrass plant response rating (surinam grass; [6]): 0 | Plant response rating, B. signalgrass (surinam grass; [7]): 0 | B. signalgrass plant response rating (surinam grass; Rate 500 g/ha, Postemergence, scale 0 to 10, 0 no effect, 10 complete control): 0 | Morningglory plant response rating (morningglory; [1]): 2 | Morningglory plant response rating (morningglory; [2]): 0 | Morningglory plant response rating (0 to 10 scale) (morningglory; [3]): 0 | Morningglory plant response rating (morningglory; [4]): 1 | Morningglory plant response rating (morningglory; [5]): 2 | Morningglory plant response rating (morningglory; [6]): 0 | Plant response rating, Morningglory (morningglory; [7]): 2 | Morningglory plant response rating (morningglory; [8]): 2 | Giant foxtail plant response rating (giant foxtail; [1]): 0 | Giant foxtail plant response rating (giant foxtail; [2]): 3 | Giant foxtail plant response rating (0 to 10 scale) (giant foxtail; [3]): 4 | Giant foxtail plant response rating (giant foxtail; [4]): 7 | Giant foxtail plant response rating (giant foxtail; [5]): 8 | Giant foxtail plant response rating (giant foxtail; [6]): 0 | Plant response rating, Giant foxtail (giant foxtail; [7]): 4 | Giant foxtail plant response rating (giant foxtail; [8]): 5 | Nutsedge plant response rating (purple nutsedge; [1]): 0 | Nutsedge plant response rating (purple nutsedge; [2]): 0 | Nutsedge plant response rating (0 to 10 scale) (purple nutsedge; [3]): 0 | Nutsedge plant response rating (purple nutsedge; [4]): 0 | Nutsedge plant response rating (purple nutsedge; [5]): 0 | Nutsedge plant response rating (purple nutsedge; [6]): 0 | Plant response rating, Nutsedge (purple nutsedge; [7]): 0 | Nutsedge plant response rating (purple nutsedge; [8]): 0 | Rice plant response rating (rice; [9]): 0 | Rice plant response rating (rice; [10]): 0 | Plant response rating, Rice (rice; [11]): 0 | Rice plant response rating (rice; [12]): 0 | Barnyardgrass plant response rating (bamyardgrass; [9]): 0 | Barnyardgrass plant response rating (bamyardgrass; [10]): 0 | Plant response rating, Barnyardgrass (bamyardgrass; [11]): 0 | Barnyardgrass plant response rating (bamyardgrass; [12]): 0 | Redroot pigweed plant response rating (pigweed; [1]): 2 | Redroot pigweed plant response rating (pigweed; [2]): 0 | Redroot pigweed plant response rating (0 to 10 scale) (pigweed; [3]): 0 | Redroot pigweed plant response rating (pigweed; [4]): 0 | Redroot pigweed plant response rating (pigweed; [5]): 2 | Redroot pigweed plant response rating (pigweed; [6]): 0 | Plant response rating, Redroot pigweed (pigweed; [7]): 2 | Redroot pigweed plant response rating (pigweed; [8]): 4

Reference: patent publication US6737383B1, “Herbicidal oxadiazolidines” (priority 1999, dated 2004)
